Results from ChEMBL document CHEMBL4184137, “Lysine Deacetylase Inhibitors in Parasites: Past, Present, and Future Perspectives” (J Med Chem, 2017).

How the values were obtained:
Plasmodium falciparum [1] = experiment: Antimalarial activity against Plasmodium falciparum infected in human erythrocytes preincubated for 48 hrs followed by [3H]-hypoxanthine addition measured after 24 hrs by scintillation counting assay; type: functional, organism-based
[2] = target: T1, Putative silent information regulator 2 (Leishmania infantum, UniProt A0A6L0XH39); experiment: Inhibition of N-terminal His6-tagged recombinant Leishmania infantum SIR2RP1 expressed in Escherichia coli in presence of NAD+ by fluorimetric method
T1 sequence (A0A6L0XH39 whole entry): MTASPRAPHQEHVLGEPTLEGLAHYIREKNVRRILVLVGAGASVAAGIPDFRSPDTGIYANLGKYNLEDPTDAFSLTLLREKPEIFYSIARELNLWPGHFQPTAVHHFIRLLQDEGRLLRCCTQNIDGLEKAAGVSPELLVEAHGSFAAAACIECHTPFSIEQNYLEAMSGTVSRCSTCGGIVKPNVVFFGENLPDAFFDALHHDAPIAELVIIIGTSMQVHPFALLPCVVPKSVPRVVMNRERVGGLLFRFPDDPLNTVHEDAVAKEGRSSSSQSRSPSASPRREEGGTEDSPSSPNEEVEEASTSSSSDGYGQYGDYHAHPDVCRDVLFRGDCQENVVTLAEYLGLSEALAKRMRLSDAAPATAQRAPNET

Schistosoma mansoni [3] = experiment: Antiparasitic activity against Schistosoma mansoni assessed as pairing at 20 uM after 6 days relative to control; type: functional
Schistosoma mansoni [4] = experiment: Antiparasitic activity against Schistosoma mansoni assessed cell viability at 20 uM after 5 days; type: functional
Schistosoma mansoni [5] = experiment: Antiparasitic activity against Schistosoma mansoni assessed as cumulative egg reduction at 20 uM; type: functional; set-up: scale not given: the % may be the effect or the level left
Plasmodium falciparum [6] = experiment: Antimalarial activity against Plasmodium falciparum; type: functional, organism-based
NFF = experiment: Cytotoxicity against human NFF cells after 72 hrs by SRB assay; type: cell-based
[7] = target: T2, Histone deacetylase (Plasmodium falciparum) (UniProt Q9XYC7); experiment: Inhibition of recombinant HDAC1 in recombinant Plasmodium falciparum at 1 uM using Ac-RGK(Ac)-AMC fluorogenic peptide as substrate preincubated for 1 hr followed by substrate addition measured after 10 min by fluorescence assay
T2 sequence (whole entry): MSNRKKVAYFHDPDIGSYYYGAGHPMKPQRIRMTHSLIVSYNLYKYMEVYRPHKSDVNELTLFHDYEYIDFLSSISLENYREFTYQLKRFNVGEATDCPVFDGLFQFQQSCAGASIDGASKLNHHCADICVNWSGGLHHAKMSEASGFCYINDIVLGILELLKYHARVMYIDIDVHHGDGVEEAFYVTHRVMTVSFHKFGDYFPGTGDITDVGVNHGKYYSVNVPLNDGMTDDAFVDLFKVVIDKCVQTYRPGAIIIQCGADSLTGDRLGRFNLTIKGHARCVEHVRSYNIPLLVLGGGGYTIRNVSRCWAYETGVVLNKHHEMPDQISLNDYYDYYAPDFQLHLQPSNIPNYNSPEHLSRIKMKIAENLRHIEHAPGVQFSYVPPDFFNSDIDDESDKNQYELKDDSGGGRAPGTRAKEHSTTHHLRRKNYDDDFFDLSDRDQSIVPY

HEK293 = experiment: Cytotoxicity against HEK293 cells after 48 hrs by resazurin assay; type: cell-based; conditions: Homo sapiens, HEK293, 48 h
[8] = system: Trypanosoma brucei brucei; experiment: Antitrypanosomal activity against Trypanosoma brucei brucei measured after 22 hrs by fluorescence-based Alamar blue viability assay; type: functional, organism-based
Leishmania infantum [9] = experiment: Antileishmanial activity against amastigote stage of Leishmania infantum infected in PMA-differentiated human THP-1 cells after 3 days by luciferase assay; type: functional, organism-based; conditions: THP-1, 72 h
Toxoplasma gondii = experiment: Antiparasitic activity against tachyzoite stage of Toxoplasma gondii; type: functional, organism-based
Histone deacetylase = target: T3, Histone deacetylase (Plasmodium falciparum, UniProt Q9XYC7); experiment: Inhibition of recombinant Plasmodium falciparum HDAC1 using HDAC substrate-3 after 30 mins by fluorescence assay
T3 sequence (Q9XYC7 whole entry): T2 sequence (whole entry)

[10] = Selectivity index, ratio of IC50 for African green monkey Vero cells to IC50 for Plasmodium falciparum D6; type: toxicity; conditions: read-out: Ratio IC50
Plasmodium falciparum [11] = experiment: Antimalarial activity against Plasmodium falciparum using Malstat reagent by parasite lactate dehydrogenase assay; type: functional, organism-based
[12] = Selectivity index, ratio of IC50 for African green monkey Vero cells to IC50 for Plasmodium falciparum W2; type: toxicity; conditions: read-out: Ratio IC50
[13] = Selectivity index, ratio of IC50 for human NFF cells to IC50 for transgenic GFP-fused Plasmodium falciparum NF54 […] gametocyte; type: toxicity; conditions: read-out: Ratio IC50
Plasmodium falciparum [14] = experiment: Gametocytocidal activity against transgenic GFP-fused Plasmodium falciparum NF54 […] gametocytes after 24 hrs by MitoTracker Red CM-H2XRos late-stage gametocyte imaging-based viability assay; type: functional, organism-based; conditions: NF54, 24 h
Plasmodium falciparum [15] = experiment: Antimalarial activity against Plasmodium falciparum infected in type O-positive erythrocytes by [3H]-hypoxanthine incorporation assay; type: functional, organism-based
[16] = Selectivity index, ratio of IC50 for human NFF cells to IC50 for Plasmodium falciparum; type: toxicity; conditions: read-out: Ratio IC50
Trypanosoma brucei [17] = experiment: Inhibition of recombinant Trypanosoma brucei HDAC1 at 5 uM after 30 mins
Trypanosoma brucei [18] = experiment: Inhibition of recombinant Trypanosoma brucei HDAC3 at 5 uM after 30 mins
Plasmodium falciparum [19] = experiment: Antiplasmodial activity against Plasmodium falciparum 3D7 assessed as growth inhibition after 24 hrs by measuring incorporation of [3H]-hypoxanthine by liquid scintillation counting method; type: functional, organism-based
[20] = Inhibition of Plasmodium falciparum Sir2A
Leishmania infantum [21] = experiment: Antileishmanial activity against amastigote stage of Leishmania infantum MHOM/MA671TMAP263 expressing luciferase after 72 hrs by luciferase assay; type: functional, organism-based; conditions: MHOM/MA671TMAP263, 72 h
Trypanosoma cruzi = experiment: Antitrypanosomal activity against epimastigotes of Trypanosoma cruzi […] by Alamar Blue assay; type: functional, organism-based

## O=C(/C=C/c1ccc(C(=O)NO)cc1)NO
Plasmodium falciparum [1]
  IC50: 900 to 1100 nM

## Cc1ccc(C(=O)Nc2ccc(S(=O)(=O)O)c3cc(S(=O)(=O)O)cc(S(=O)(=O)O)c23)cc1NC(=O)c1cccc(NC(=O)Nc2cccc(C(=O)Nc3cc(C(=O)Nc4ccc(S(=O)(=O)O)c5cc(S(=O)(=O)O)cc(S(=O)(=O)O)c45)ccc3C)c2)c1 [SURAMIN]
[2]
  IC50: 7 µM

## O=C1NC(=S)NC(=O)C1=Cc1cc2ccccc2[nH]1
Schistosoma mansoni [3]
  Activity: 100%
Schistosoma mansoni [4]
  Activity: 100%
Schistosoma mansoni [5]
  Activity: 65%

## Oc1ccc(/C=C/c2cc(O)cc(O)c2)cc1 [RESVERATROL]
Plasmodium falciparum [6]
  IC50: 60 µM

## Cc1[nH]c2ccccc2c1CCNCc1ccc(/C=C/C(=O)NO)cc1 [PANOBINOSTAT]
NFF
  IC50: 70 to 180 nM
[7]
  inhibition: 100%
HEK293
  IC50: 70 to 180 nM
Plasmodium falciparum [1]
  IC50: 10 to 30 nM
[8]
  IC50: 1690 nM

## O=C1c2cccc3cccc(c23)C(=O)N1CCNCCCNCCCCNCCCNCCN1C(=O)c2cccc3cccc(c23)C1=O
[2]
  IC50: 5.7 to 54.7 µM
Leishmania infantum [9]
  IC50: 1 to 10 µM

## O=C1c2cccc3cccc(c23)C(=O)N1CCNCCCCNCCN1C(=O)c2cccc3cccc(c23)C1=O
[2]
  IC50: 5.7 to 54.7 µM
Leishmania infantum [9]
  IC50: 1 to 10 µM

## O=C1c2cccc3cccc(c23)C(=O)N1CCNCCCCCCCCNCCN1C(=O)c2cccc3cccc(c23)C1=O
[2]
  IC50: 5.7 to 54.7 µM
Leishmania infantum [9]
  IC50: 1 to 10 µM

## O=C(CCCCCCC(=O)NO)NO [SUBEROHYDROXAMIC ACID]
Plasmodium falciparum [1]
  IC50: 800 to 2300 nM
Toxoplasma gondii
  IC50: 213 nM

## CC[C@H]1OC(=O)[C@H](C)[C@@H](O[C@H]2C[C@@](C)(OC)[C@@H](O)[C@H](C)O2)[C@H](C)[C@@H](O[C@@H]2O[C@H](C)C[C@H](N(C)Cc3ccc(-c4cn(CCCCCCC(=O)NO)nn4)cc3)[C@H]2O)[C@](C)(O)C[C@@H](C)CN(C)[C@H](C)[C@@H](O)[C@]1(C)O
Histone deacetylase
  IC50: 29 nM
[10]
  selectivity ratio: > 20.7
Plasmodium falciparum [11]
  IC50: 94 to 226 nM
[12]
  selectivity ratio: > 47.6

## O=C(/C=C/c1cccc(S(=O)(=O)Nc2ccccc2)c1)NO [BELINOSTAT]
NFF
  IC50: 1400 to 2400 nM
[7]
  inhibition: 78.5%
HEK293
  IC50: 1400 to 2400 nM
Plasmodium falciparum [1]
  IC50: 60 to 130 nM
[8]
  IC50: 2600 nM

## O=C(CCCCCONC(=O)Nc1cccc2ccccc12)NO
NFF
  IC50: 19500 nM
[13]
  selectivity ratio: 9
Plasmodium falciparum [14]
  IC50: 2120 to 2250 nM
Plasmodium falciparum [15]
  IC50: 250 to 320 nM
[16]
  selectivity ratio: 36 to 78

## O=C1c2cccc3cccc(c23)C(=O)N1CCNCCNCCNCCN1C(=O)c2cccc3cccc(c23)C1=O
[2]
  IC50: 5.7 to 54.7 µM
Leishmania infantum [9]
  IC50: 1 to 10 µM

## O=C1c2cccc3cccc(c23)C(=O)N1CCNCCCCCCCCCCNCCN1C(=O)c2cccc3cccc(c23)C1=O
[2]
  IC50: 5.7 to 54.7 µM
Leishmania infantum [9]
  IC50: 1 to 10 µM

## O=C1c2cccc3cccc(c23)C(=O)N1CCNCCCCCCCCCNCCN1C(=O)c2cccc3cccc(c23)C1=O
[2]
  IC50: 5.7 to 54.7 µM
Leishmania infantum [9]
  IC50: 1 to 10 µM

## O=C1c2cccc3cccc(c23)C(=O)N1CCNCCCCCCCCCCCCNCCN1C(=O)c2cccc3cccc(c23)C1=O
[2]
  IC50: 5.7 to 54.7 µM
Leishmania infantum [9]
  IC50: 1 to 10 µM

## CCCC(CCC)C(=O)O [VALPROIC ACID]
Plasmodium falciparum [6]
  IC50: > 100 µM

## O=C1c2cccc3cccc(c23)C(=O)N1CCNCCCCCCCNCCN1C(=O)c2cccc3cccc(c23)C1=O
[2]
  IC50: 5.7 to 54.7 µM
Leishmania infantum [9]
  IC50: 1 to 10 µM

## CC(/C=C/C(=O)NO)=C\[C@@H](C)C(=O)c1ccc(N(C)C)cc1 [TRICHOSTATIN]
Trypanosoma brucei [17]
  inhibition: > 50%
Trypanosoma brucei [18]
  inhibition: > 50%
Toxoplasma gondii
  IC50: 41 nM
[8]
  IC50: 7000 nM

## O=C1CCc2c(ccc3ccccc23)O1 [SPLITOMICIN]
Plasmodium falciparum [19]
  IC50: > 0.01 mM
[20]
  IC50: > 400 µM

## O=C1c2cccc3cccc(c23)C(=O)N1CCNCCCCNCCCNCCN1C(=O)c2cccc3cccc(c23)C1=O
[2]
  IC50: 5.7 to 54.7 µM
Leishmania infantum [9]
  IC50: 1 to 10 µM

## O=C(CCCCCN1C(=O)c2cccc3cccc(c23)C1=O)NO
Toxoplasma gondii
  IC50: 39 nM

## NC(=O)c1cccnc1 [NIACINAMIDE]
[2]
  IC50: 40 µM
Plasmodium falciparum [19]
  IC50: 9.9 mM
[20]
  IC50: 51 µM
Leishmania infantum [21]
  IC50: 5.5 to 13.9 mM
Trypanosoma cruzi
  EC50: 25.8 mM

## O=C1c2cccc3cccc(c23)C(=O)N1CCNCCCCCNCCN1C(=O)c2cccc3cccc(c23)C1=O
[2]
  IC50: 5.7 to 54.7 µM
Leishmania infantum [9]
  IC50: 1 to 10 µM

## O=C1c2cccc3cccc(c23)C(=O)N1CCNCCCNCCCNCCN1C(=O)c2cccc3cccc(c23)C1=O
[2]
  IC50: 5.7 to 54.7 µM
Leishmania infantum [9]
  IC50: 1 to 10 µM

## O=C1c2cccc3cccc(c23)C(=O)N1CCNCCCCCCNCCN1C(=O)c2cccc3cccc(c23)C1=O
[2]
  IC50: 5.7 to 54.7 µM
Leishmania infantum [9]
  IC50: 1 to 10 µM
